Reference: patent US20050192262A1, “Treatment of tumours” (priority 2001, published 2005)

How the values were obtained:
[1] = test system: PC-3; experiment: Caspase-3 apoptosis assay (Ac-DEVD-AMC fluorescence); type: cell-based, human; details: 96 hours; for Mean fluorescence PC-3 samples/100 cells n = 3: corrected for cell number; for Caspase 3-mediated fluorescence compared to untreated controls: PC-3, 100 nM, not corrected for cell numbers
Method: (§1) Exposure was maintained for 96 hours and cells in culture flasks were then treated with 5 ml of trypsin (0.25%) for PC-3 and trypsin and 3 ml of Versene (0.2 mM) for DU-145. Cells were then mechanically loosened, using a glass spatula. 100 μL aliquots were removed for Trypan blue exclusion trial. 200 μL aliquots were removed for cytospin preparations. The remaining 700 μL samples were then centrifuged for 5 minutes at 510×g at 4° C. Supernatant was removed and cells were resuspended in medium in 1 ml of insect cell lysis buffer (Pharmingen # 21425A) and incubated for 30 minutes on ice. The cell lysates were then stored at −70° C. until analysis.
Aliquots of a 100 μL of cell lysate were removed for the caspase assay. Each portion was mixed with 1 ml protease assay buffer and Ac-DEVD-AMC substrate (Pharmingen # 66081U) with a final concentration of 20 μM. Solutions were incubated for 60 minutes at 37° C.
To determine background fluorescence a control was prepared, containing no cell lysate but the same amounts of protease assay buffer, lysis buffer and Ac-DEVD-AMC substrate.
Fluorescence was measured using a spectrofluorometer (RF 540, Shimadzu Data Recorder DR3, Instrument AB, Lambda) at 415-450 nm with an excitation wavelength of 380 nm.

[2] = test system: VEGF; experiment: Immunostaining of tumour sections against VEGF; type: in vivo, rat
Method: Working dilution 1:100. As negative control antibody a mouse IgG, clone DAK-GO1, kappa, ×931, Dako, was used with a working dilution of 1:50.
(§2) The animal experiment described above was repeated.
(§3) Group 1 received a single dose of 10 mg 17α-AED sc. near tumour.
(§4) Group 2 received a single dose of 80 mg 17β-AED in the same way.
(§5) Group 3 received a single dose of 25 mg 17α OH-pregnenolone in the same way.
(§6) Group 4 received a single dose of 7.5 mg 5-androstene-3β,7β,17α-triol.

[3] = test system: COX-2; details: Animals I; controls set to 100; mean (range); α-AED 10 mg 96 hours, β-AED 80 mg 456 hours, α+β sequential
Method: as §2
(§7) Thawed rat tumours from both experiments above were homogenized in ice cold lysis-buffer. (160 mM NaCl, 10 mM HEPES, 2 mM CaCl2, 5% SDS, 0.5% Triton X-100, 100 μg/ml phenyl-metylsulfonyl fluoride, 1 μg/ml leupeptin and 2 μg/ml aprotinin), placed on ice for 15 minutes and following clarification centrifuged for 10 minutes at 13,000 g. Protein content of homogenates were determined by Lowry assay.
(§8) Protein in lysates (90 μg) were separated by electrophoresis using 8% SDS-PAGE and separated proteins were transferred onto a nitrocellulose membrane (Amersham) in trans-blot electrophoretic transfer cell (Bio-Rad Laboratories).
(§9) After washing in TTBS the blots were reincubated with horseradish peroxidase conjugated secondary antibody (anti-goat antibodies 2020, Santa Cruz) diluted 1:4000 in TTBS containing 3% (w/v) non-fat, dried milk for one hour. Blots were developed using an enhanced chemiluminescence system (ECL, Amersham) and exposed to Hyperfilm ECL (Amersham). Optical density was measured densitometrically.
The blots were striped and rehybridized with antibodies against β-catenin (C-18, sc. 1496) and COX-2 (C-20, sc 1745) antibodies.
In the second animal experiment tumours were investigated for expression of β-catenin, COX-2 and cyclin D1 (A-12, sc. 8396).

[4] = test system: DU-145; experiment: Trypan blue exclusion trial, number of viable and dead cells; type: cell-based, human; details: 96 hours; for DU-145 mean % viable / DU-145 mean Dead cells / DU-145 mean Tot. cells / DU-145 mean Viable cells: 100 nM; for DU-145 mean Dead cells / DU-145 mean Tot. cells / DU-145 mean Viable cells: mean (range)
Method: (§10) Human prostatic cancer cell lines, PC-3 and DU-145, were used. Frozen cell lines were established in culture. DU-145, which was received as a tumour piece, was first disintegrated in a sterile Petri dish, using a pair of scissors. The disintegrated tumour was transferred to a […] cell-culture flask containing medium. For medium, Ham's F 10 was used for PC-3 and RPMI 1640 for DU-145.
(§11) FBS 10%, 0.2% NaHCO3 (7.5%), 2 mM L-glutamine (200 mM) and 0.005 mg/ml gentamycin (5 mg/ml) were added to culturing media for both cell lines.
(§12) Cells were grown in […] cell culture flasks until nearly confluent and culture medium was changed twice weekly. A solution of 17α-AED, 17-β-AED as well as a mixture of both in equal parts of DMSO and ethanol diluted in culture medium, not allowing the concentration of DMSO in culture-flasks to exceed 0.15%, was added respectively.
(§13) The concentration of AED in each culture flask was 100 nM. Controls were exposed to the same concentration of DMSO and ethanol in culture medium.
as §1
(§14) Trypan Blue Exclusion Trial 100 μL aliquots of the initial cell suspension in PBS were used to determine the viability of cells collected by means of the trypan blue exclusion assay. 10 μL of the cell suspensions were mixed with 10 μL trypan blue solution (Sigma Chemical Co. # T8154) and left to sit for 3 minutes. The numbers of viable and dead cells were counted in a hemocytometer.

[5] = test system: PC-3; experiment: as above; type: cell-based, human; details: 96 hours; for PC-3 mean % viable / PC-3 mean Dead cells / PC-3 mean Tot. cells / PC-3 mean Viable cells: 100 nM; for PC-3 mean Dead cells / PC-3 mean Tot. cells / PC-3 mean Viable cells: mean (range); for increase in total number of cells compared to controls / proportion of viable cells: PC-3, 100 nM
Method: as §10, §11, §12, §13, §1, §14

[6] = test system: PPARγ; details: Animals I; controls set to 100; mean (range); α-AED 10 mg 96 hours, β-AED 80 mg 456 hours, α+β sequential
Method: as §7, §8, §9
All experiments were repeated twice in separate assays.

[7] = test system: Dunning R 3327, AT-1, rat prostatic tumour; experiment: Tumour growth after s.c. injection near tumour; type: in vivo; details: for tumour volumes: Animals II, single s.c. injection in the proximity of the tumour
Method: as §2, §3, §4, §5, §6
A fifth group served as tumour bearing controls.

[8] = test system: cyclin D1; experiment: Western blotting of Dunning AT-1 rat prostate tumours; type: in vivo; details: Animals II; exposure 80 hours in all arms
Method: as §2, §3, §4, §5, §6
Protein content of homogenates were determined by Lowry assay.

Compound | Mean fluorescence PC-3 samples/100 cells n = 3 ([1]; 100 nM, mean (range)) | Caspase 3-mediated fluorescence compared to untreated controls [1] | COX-2 expression, optical density [3] | DU-145 mean % viable [4] | DU-145 mean Dead cells [4] | DU-145 mean Tot. cells [4] | DU-145 mean Viable cells [4] | PC-3 mean % viable [5] | PC-3 mean Dead cells [5] | PC-3 mean Tot. cells [5] | PC-3 mean Viable cells [5] | increase in total number of cells compared to controls [5] | proportion of viable cells [5] | PPARγ expression, optical density [6] | tumour volumes [7] | expression of cyclin D1 [8] | also measured
C[C@]12CC[C@H]3[C@@H](CC=C4C[C@@H](O)CC[C@@]43C)[C@@H]1CC[C@H]2O [Compound 17α-AED, androstene-3β,17α-diol] | 19.5(15.7-25.9) | essentially unaltered intensity | 219(192-234) | 78.1% | 29(21-37) | 131(122-148) | 102(95-111) | 71.6% | 23(16-32) | 81(64-98) | 58(49-77) | 59% | small decrease in proportion of viable cells | 190(176-210) | ~150% | marked decrease | expression of VEGF (immunostaining) ([2]; Animals I, 3/4 samples): very weak; total number of cells ([4]; DU-145, 100 nM): significant decrease in total number of cells
C[C@]12CC[C@H]3[C@@H](CC=C4C[C@@H](O)CC[C@@]43C)[C@@H]1CC[C@@H]2O [Compound 17β-AED, reference compound] | 45.5(24.5-75.2) | approximately a doubling of fluorescence | 135(133-137) | 72.1% | 35(31-42) | 125(109-149) | 90(78-107) | 73.7% | 17(16-18) | 66(63-71) | 49(46-53) | 29% | small decrease in proportion of viable cells | 47(40-53) | ~200% | did not reduce | Mean fluorescence PC-3 samples n = 3 ([1]; 100 nM, mean (range)): 29.6(17.4-48.1); staining for VEGF ([2]; Animals II): strong staining for VEGF; antitumoural effect / tumour growth ([7]; original experiment (Animals I)): growth-stimulatory effect
